# Experimental data reported in patent publication US20260001928A1 (CORTERIA PHARMACEUTICALS, priority 2022, published 2026).
# *1 amine or outer side, *2 acyl side, *3 side chain or, on linkers, in order; H or OH if unused. Where a SMILES comes first, the peptide text is derived from it. Side-chain parts run from the residue outwards. [ ]: non-standard residue; d: D form. The star is where a group is joined. C16 diacid = O=C(O)CCCCCCCCCCCCCCC(=O)*; γGlu = O=C(O)[C@H](CCC(=O)[*:2])N[*:1]; Aib = CC(C)(N)C(=O)O
# Key:
# human CRF2a receptor = molecular target: T1, human CRF2a receptor (Homo sapiens, UniProt Q13324); assay: Activity at human CRF2a receptor, cAMP functional assay in TeloHEAC cells; format: cell-based; conditions: TeloHEAC cells stably expressing human CRF2a receptor, relative to urocortin 2 (100 nM = 100%)
# T1 construct: expressed in transfected cells; host or cells: TeloHEAC cells
# T1 sequence (Q13324 1-411): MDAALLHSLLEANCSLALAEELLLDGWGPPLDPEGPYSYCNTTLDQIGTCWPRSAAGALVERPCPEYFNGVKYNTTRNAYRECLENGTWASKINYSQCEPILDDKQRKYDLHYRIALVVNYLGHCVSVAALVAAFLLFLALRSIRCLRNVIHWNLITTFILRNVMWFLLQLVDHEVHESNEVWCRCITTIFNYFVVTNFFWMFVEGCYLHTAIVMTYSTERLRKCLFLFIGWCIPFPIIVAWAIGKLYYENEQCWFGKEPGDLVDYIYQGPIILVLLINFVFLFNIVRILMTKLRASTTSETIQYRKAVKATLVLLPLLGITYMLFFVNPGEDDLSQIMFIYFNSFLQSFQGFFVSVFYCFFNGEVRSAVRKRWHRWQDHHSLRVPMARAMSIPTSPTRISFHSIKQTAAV
# Method in brief: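 TeloHEAC cells stably expressing human CRF2a (10000 cells/well, suspended in HBSS/20 mM HEPES with 2 mM IBMX) were exposed to compounds for 30 min at 37 °C. cAMP was read as the 665/620 nm fluorescence ratio after 1 h at room temperature. EC50 was derived relative to 100 nM urocortin 2, set as 100%.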
# CFR1R receptor = molecular target: T2, CFR1R receptor (Homo sapiens, UniProt P34998); assay: Activity at anti-target CFR1R receptor, cAMP assay in CRF1R-overexpression CHO-K1 cells; format: cell-based; conditions: 100% = Sauvagine at 100 nM; for EC50: cAMP
# T2 construct: host or cells: CHO-K1 (clone 2)
# T2 sequence (P34998 24-415): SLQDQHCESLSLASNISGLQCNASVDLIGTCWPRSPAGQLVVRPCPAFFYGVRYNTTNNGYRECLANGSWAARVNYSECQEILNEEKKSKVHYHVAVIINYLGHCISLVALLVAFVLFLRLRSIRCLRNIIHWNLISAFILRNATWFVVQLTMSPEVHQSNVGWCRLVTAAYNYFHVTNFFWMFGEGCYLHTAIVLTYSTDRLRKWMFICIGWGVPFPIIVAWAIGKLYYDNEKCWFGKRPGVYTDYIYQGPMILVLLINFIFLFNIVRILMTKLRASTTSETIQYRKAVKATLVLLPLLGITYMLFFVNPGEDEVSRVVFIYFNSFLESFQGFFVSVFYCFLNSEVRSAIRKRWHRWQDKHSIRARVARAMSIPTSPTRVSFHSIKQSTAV
# Method in brief: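 Clone 2 cells were cultured in F12 (Hams)/10% FBS/400 μg/ml G418 at 37° C./5% CO2, frozen in medium with 10% DMSO, and thawed vials used. The protocol followed the TeloHAEC procedure, with 4000 cells/well final and Sauvagine at 100 nM defining 100% activation.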
SMILES,EC50 (human CRF2a receptor),Emax (% I) (CFR1R receptor),EC50 (CFR1R receptor)
CC[C@H](C)[C@H](NC(C)=O)C(=O)N[C@H](C(=O)N[C@@H](CC(C)C)C(=O)N[C@@H](CO)C(=O)N[C@@H](CC(C)C)C(=O)N[C@@H](CC(=O)O)C(=O)N[C@@H](C(=O)N1CCC[C@H]1C(=O)N[C@H](C(=O)N[C@@H](C)C(=O)N[C@@H](CC(C)C)C(=O)N[C@@H](CCCCNC(=O)CC[C@H](NC(=O)CCCCCCCCCCCCCCC(=O)O)C(=O)O)C(=O)N[C@@H](CCCCN)C(=O)N[C@H](C(=O)N[C@@H](CC(C)C)C(=O)N[C@@H](CC(C)C)C(=O)N[C@@H](CCC(=O)O)C(=O)N[C@@H](CCC(N)=O)C(=O)N[C@@H](CCC(=O)O)C(=O)N[C@@H](CCCCN)C(=O)N[C@@H](CCC(N)=O)C(=O)N[C@@H](CCCCN)C(=O)N[C@@H](CCCCN)C(=O)N[C@@H](CCC(N)=O)C(=O)N[C@@H](CCCNC(=N)N)C(=O)N[C@@H](CCC(=O)O)C(=O)N[C@@H](CCC(N)=O)C(=O)N[C@@H](C)C(=O)N[C@@H](CCC(=O)O)C(=O)N[C@H](C(=O)N[C@@H](CC(N)=O)C(=O)NC(C)(C)C(=O)N[C@@H](CCC(N)=O)C(=O)N[C@H](C(=O)N[C@@H](CC(C)C)C(=O)N[C@@H](C)C(=O)N[C@@H](CCC(N)=O)C(=O)N[C@H](C(N)=O)C(C)C)[C@@H](C)CC)[C@@H](C)O)[C@@H](C)CC)[C@@H](C)CC)C(C)C)C(C)C [compound 163] (Ac-IVLSLD[dV]PIALK([γGlu-C16 diacid])KILLEQEKQKKQREQAETN[Aib]QILAQV-NH2),0.3 nM,53 % I,
CC[C@H](C)[C@H](NC(C)=O)C(=O)N[C@H](C(=O)N[C@@H](CC(C)C)C(=O)N[C@@H](CO)C(=O)N[C@@H](CC(C)C)C(=O)N[C@@H](CC(=O)O)C(=O)N[C@@H](C(=O)N1CCC[C@H]1C(=O)N[C@H](C(=O)N[C@@H](CCCCN)C(=O)N[C@@H](CC(C)C)C(=O)N[C@@H](CCCCNC(=O)CC[C@H](NC(=O)CCCCCCCCCCCCCCC(=O)O)C(=O)O)C(=O)N[C@@H](C)C(=O)N[C@H](C(=O)N[C@@H](CC(C)C)C(=O)N[C@@H](CC(C)C)C(=O)N[C@@H](CCC(=O)O)C(=O)N[C@@H](CCC(N)=O)C(=O)N[C@@H](CCC(=O)O)C(=O)N[C@@H](CCCCN)C(=O)N[C@@H](CCC(N)=O)C(=O)N[C@@H](CCCCN)C(=O)N[C@@H](CCCCN)C(=O)N[C@@H](CCC(N)=O)C(=O)N[C@@H](CCCNC(=N)N)C(=O)N[C@@H](CCC(=O)O)C(=O)N[C@@H](CCC(N)=O)C(=O)N[C@@H](C)C(=O)N[C@@H](CCC(=O)O)C(=O)N[C@H](C(=O)N[C@@H](CC(N)=O)C(=O)NC(C)(C)C(=O)N[C@@H](CCC(N)=O)C(=O)N[C@H](C(=O)N[C@@H](CC(C)C)C(=O)N[C@@H](C)C(=O)N[C@@H](CCC(N)=O)C(=O)N[C@H](C(N)=O)C(C)C)[C@@H](C)CC)[C@@H](C)O)[C@@H](C)CC)[C@@H](C)CC)C(C)C)C(C)C [compound 164] (Ac-IVLSLD[dV]PIKLK([γGlu-C16 diacid])AILLEQEKQKKQREQAETN[Aib]QILAQV-NH2),2.43 nM,14 % I,> 250 nM
CC[C@H](C)[C@H](NC(C)=O)C(=O)N[C@H](C(=O)N[C@@H](CC(C)C)C(=O)N[C@@H](CO)C(=O)N[C@@H](CC(C)C)C(=O)N[C@@H](CC(=O)O)C(=O)N[C@@H](C(=O)N1CCC[C@H]1C(=O)N[C@H](C(=O)N[C@@H](CCCCN)C(=O)N[C@@H](CC(C)C)C(=O)N[C@@H](CCCCNC(=O)CC[C@H](NC(=O)CCCCCCCCCCCCCCC(=O)O)C(=O)O)C(=O)N[C@@H](CCCCN)C(=O)N[C@H](C(=O)N[C@@H](CC(C)C)C(=O)N[C@@H](CC(C)C)C(=O)N[C@@H](CCC(=O)O)C(=O)N[C@@H](CCC(N)=O)C(=O)N[C@@H](CCC(=O)O)C(=O)N[C@@H](CCCCN)C(=O)N[C@@H](CCC(N)=O)C(=O)N[C@@H](CCCCN)C(=O)N[C@@H](CCC(=O)O)C(=O)N[C@@H](CCC(N)=O)C(=O)N[C@@H](CCCNC(=N)N)C(=O)N[C@@H](CCC(=O)O)C(=O)N[C@@H](CCC(N)=O)C(=O)N[C@@H](C)C(=O)N[C@@H](CCC(=O)O)C(=O)N[C@H](C(=O)N[C@@H](CC(N)=O)C(=O)NC(C)(C)C(=O)N[C@@H](CCC(N)=O)C(=O)N[C@H](C(=O)N[C@@H](CC(C)C)C(=O)N[C@@H](C)C(=O)N[C@@H](CCC(N)=O)C(=O)N[C@H](C(N)=O)C(C)C)[C@@H](C)CC)[C@@H](C)O)[C@@H](C)CC)[C@@H](C)CC)C(C)C)C(C)C [compound 168] (Ac-IVLSLD[dV]PIKLK([γGlu-C16 diacid])KILLEQEKQKEQREQAETN[Aib]QILAQV-NH2),0.8 nM,3 % I,> 250 nM

# Second part, the molecule after the results:
EC50 (human CRF2a receptor),Emax (% I) (CFR1R receptor),EC50 (CFR1R receptor),SMILES
0.77 nM,5 % I,> 250 nM,CC[C@H](C)[C@H](NC(C)=O)C(=O)N[C@H](C(=O)N[C@@H](CC(C)C)C(=O)N[C@@H](CO)C(=O)N[C@@H](CC(C)C)C(=O)N[C@@H](CC(=O)O)C(=O)N[C@@H](C(=O)N1CCC[C@H]1C(=O)N[C@H](C(=O)N[C@@H](CCCCN)C(=O)N[C@@H](CC(C)C)C(=O)N[C@@H](CCCCNC(=O)CC[C@H](NC(=O)CCCCCCCCCCCCCCC(=O)O)C(=O)O)C(=O)N[C@@H](CCCCN)C(=O)N[C@H](C(=O)N[C@@H](CC(C)C)C(=O)N[C@@H](CC(C)C)C(=O)N[C@@H](CCC(=O)O)C(=O)N[C@@H](CCC(N)=O)C(=O)N[C@@H](CCC(=O)O)C(=O)N[C@@H](CCCCN)C(=O)N[C@@H](CCC(N)=O)C(=O)N[C@@H](C)C(=O)N[C@@H](CCCCN)C(=O)N[C@@H](CCC(N)=O)C(=O)N[C@@H](CCCNC(=N)N)C(=O)N[C@@H](CCC(=O)O)C(=O)N[C@@H](CCC(N)=O)C(=O)N[C@@H](C)C(=O)N[C@@H](CCC(=O)O)C(=O)N[C@H](C(=O)N[C@@H](CC(N)=O)C(=O)NC(C)(C)C(=O)N[C@@H](CCC(N)=O)C(=O)N[C@H](C(=O)N[C@@H](CC(C)C)C(=O)N[C@@H](C)C(=O)N[C@@H](CCC(N)=O)C(=O)N[C@H](C(N)=O)C(C)C)[C@@H](C)CC)[C@@H](C)O)[C@@H](C)CC)[C@@H](C)CC)C(C)C)C(C)C [compound 166] (Ac-IVLSLD[dV]PIKLK([γGlu-C16 diacid])KILLEQEKQAKQREQAETN[Aib]QILAQV-NH2)
1.15 nM,7 % I,> 250 nM,CC[C@H](C)[C@H](NC(C)=O)C(=O)N[C@H](C(=O)N[C@@H](CC(C)C)C(=O)N[C@@H](CO)C(=O)N[C@@H](CC(C)C)C(=O)N[C@@H](CC(=O)O)C(=O)N[C@@H](C(=O)N1CCC[C@H]1C(=O)N[C@H](C(=O)N[C@@H](CCCCN)C(=O)N[C@@H](CC(C)C)C(=O)N[C@@H](CCCCNC(=O)CC[C@H](NC(=O)CCCCCCCCCCCCCCC(=O)O)C(=O)O)C(=O)N[C@@H](CCCCN)C(=O)N[C@H](C(=O)N[C@@H](CC(C)C)C(=O)N[C@@H](CC(C)C)C(=O)N[C@@H](CCC(=O)O)C(=O)N[C@@H](CCC(N)=O)C(=O)N[C@@H](CCC(=O)O)C(=O)N[C@@H](CCCCN)C(=O)N[C@@H](CCC(N)=O)C(=O)N[C@@H](CCCCN)C(=O)N[C@@H](CCCCN)C(=O)N[C@@H](CCC(N)=O)C(=O)N[C@@H](C)C(=O)N[C@@H](CCC(=O)O)C(=O)N[C@@H](CCC(N)=O)C(=O)N[C@@H](C)C(=O)N[C@@H](CCC(=O)O)C(=O)N[C@H](C(=O)N[C@@H](CC(N)=O)C(=O)NC(C)(C)C(=O)N[C@@H](CCC(N)=O)C(=O)N[C@H](C(=O)N[C@@H](CC(C)C)C(=O)N[C@@H](C)C(=O)N[C@@H](CCC(N)=O)C(=O)N[C@H](C(N)=O)C(C)C)[C@@H](C)CC)[C@@H](C)O)[C@@H](C)CC)[C@@H](C)CC)C(C)C)C(C)C [compound 167] (Ac-IVLSLD[dV]PIKLK([γGlu-C16 diacid])KILLEQEKQKKQAEQAETN[Aib]QILAQV-NH2)
